Measured values from patent US20240293367A1, “METHODS OF TREATING DISORDERS WITH A […]” (Cybin IRL Limited, priority 2023, published 2024).
Several values for one entry are separate records, joined by “and”; a condition that tells them apart may be missing. Equal values may be shown once. Read-outs that look alike come from different tables or passages of the source.

Test: Phase I/IIa clinical PK of oral psilocin-d10, plasma, noncompartmental analysis (Cohorts 1-6)
Format: in vivo, human
Details: for AUC(0-inf): read-out: AUC0-inf Mean (SD)
Procedure: Phase I/IIa, Randomized, Double-Blind, Placebo-Controlled Study which assesses the safety, tolerability, pharmacokinetics, and pharmacodynamics of multiple ascending oral doses of psilocin-d10 in participants with and without MDD (ClinicalTrials.gov Identifier: NCT05385783). All subjects receiving study medication in Cohorts 1-6 received oral psilocin-d10 powder in solution (0.1M citric acid+Tang orange drink, 30 mL dose in a dose cup) and subjects receiving placebo received a similar volume of Tang orange drink without the psilocin-d10 study drug. All subjects receiving study medication in the relative bioavailability (BA) cohort received powder-filled capsules containing psilocin-d10 benzenesulfonate salt by ingestion with approximately 240 mL room temperature water, or oral psilocin-d10 powder in solution (0.1M citric acid+Tang orange drink, 30 mL dose in a dose cup) in a cross-over design. Psilocin-d10 for the powder in solution dosage form was manufactured by Patheon Pharma Services, with an isotopic purity of 79.89%. Psilocin-d10 benzenesulfonate salt for the powder-filled capsule dosage form was manufactured by Patheon Pharma Services, with an isotopic purity of 85.20%.
Cohorts 1, 4, 5, and 6 of the study was comprised of participants with MDD. Cohorts 2, 3, and the relative BA cohort of the study were comprised of normal healthy volunteers (NHV). […] MDD participants had been on a stable dose of antidepressant medication for at least one month prior to screening with an inadequate response to that antidepressant medication as judged by the Investigator, and continued to receive their prescribed antidepressant throughout the course of the study.
Cohort 1. For Cohort 1, 2 sentinel subjects were randomized and dosed, including 1 subject who received a psilocin-d10 1 mg oral dose and 1 subject who received a placebo dose. After the sentinel subjects were dosed, an additional 2 subjects were dosed, including a replacement subject for one of the sentinel subjects who withdrew consent and one additional subject. In total, four Cohort 1 subjects received a first dose of study medication on Day 1, and 3 subjects received a second dose of study medication on Day 22. For the first dose, 2 subjects received an active psilocin-d10 1 mg dose and 2 subjects received placebo. For the second dose, 3 subjects received an active psilocin-d10 1 mg dose.
Cohort 2. For Cohort 2, 4 subjects were randomized and dosed on Day 1 (2 subjects on one day, 2 subjects on the next day), including 3 subjects who received a psilocin-d10 3 mg oral dose and 1 subject who received a placebo dose. These same 4 subjects were again dosed on Day 8 (2 subjects on one day, 2 subjects on the next day), with all 4 subjects receiving a psilocin-d10 8 mg oral dose (note the actual washout was 11 days between doses).
Cohort 3. For Cohort 3 Day 1, 4 subjects were randomized and dosed on Day 1 (2 subjects on one day, 2 subjects on the next day), including 3 subjects who received a psilocin-do 8 mg oral dose and 1 subject who received a placebo dose. […] Another subject was dosed and left the study after the 2-hour PK sampling and has limited PK samples available for analysis from 0 to 2 hours—this subject's PK data has thus been excluded from the analysis presented hereinafter. For Cohort 3 Day 8, 3 subjects were dosed on Day 8 with a psilocin-d10 10 mg dose (2 sentinel subjects were dosed on one day, 1 non-sentinel subject was dosed on the next day).
Cohorts 4 and 5. For Cohorts 4 and 5, 12 participants each (24 participants total) were randomized in a 3:1 ratio to receive 12 mg of psilocin-d10 or matched placebo in a single dosing session on Day 1. Following a 21-day interval, all participants received a dose of 12 mg psilocin-d10 on Day 22 (second dose for participants originally randomized to psilocin-d10, first dose for participants randomized to placebo), and were followed to Day 42.
Cohort 6. […]

[2H]C([2H])([2H])N(C([2H])([2H])[2H])C([2H])([2H])C([2H])([2H])c1c[nH]c2cccc(O)c12 [psilocin-d10, 3-(2-(bis(methyl-d3)amino)ethyl-1,1,2,2-d4)-1H-indol-4-ol]
CL/F Mean (SD) (1 mg oral, Cohort 1 MDD, Day 1 and Day 22 pooled): 101.08 (18.94) L/h
CL/F Mean (SD) (3 mg oral, Cohort 2 NHV, Day 1): 85.22 (11.21) L/h
Cmax Mean (SD) (8 mg oral, Cohorts 2 and 3 NHV, Day 1 and Day 8 pooled, 2 subjects excluded): 15.00 (4.85) ng/ml and 15.00^3 ng/ml
CL/F Mean (SD) (8 mg oral, Cohorts 2 and 3 NHV, pooled): 97.56 (31.21) L/h
AUC0-24 Mean (SD) (8 mg oral, Cohorts 2 and 3 NHV, pooled, 2 subjects excluded): 83.98 (21.46) h*ng/mL and 83.98^3 h*ng/mL
CL/F Mean (SD) (10 mg oral, Cohort 3 NHV, Day 8): 104.7 (40.25) L/h
CL/F Mean (SD) (12 mg oral, Cohort 4 MDD, Day 1 and Day 22): 85.32 (35.41) L/h
CL/F Mean (SD) (12 mg oral, Cohort 5 MDD, Day 1 and Day 22): 91.95 (25.38) L/h
CL/F Mean (SD) (12 mg oral, Cohorts 4 and 5 MDD, Day 1 and Day 22): 88.72 (30.45) L/h
CL/F Mean (SD) (16 mg oral, Cohort 6 MDD, all subjects incl. 3 with emesis): 128.11 (83.50) L/h
mean clearance (CL/F) (16 mg, 18 doses, no emesis): ~107.2 L/h
Observed Mean Cmax (16 mg, Cohort 6, N = 18, excluding 3 doses with vomiting postdose): 20.73^2 ng/mL
fold increase in mean Cmax, 16 mg (18 doses, no emesis) compared to 12 mg (1.33-fold increase in dose): ~1.1 fold
fold increase in mean AUC, 12 mg compared to 8 mg (1.5-fold increase in dose): 1.7 to 1.8 fold
fold increase in mean Cmax, 12 mg compared to 8 mg (1.5-fold increase in dose): ~1.2 fold
mean Cmax, fold higher, 8 mg dose compared to 3 mg dose (2.67-fold increase in dose): 2.45 fold
mean AUC0-24, AUClast and AUC0-inf, fold higher, 8 mg compared to 1 mg (8-fold increase in dose): 8.1 to 8.3 fold
mean Cmax, fold higher, 8 mg dose compared to 1 mg dose (8-fold increase in dose): 8.6 fold
fold increase in mean AUC, 16 mg (18 doses, no emesis) compared to 12 mg (human, plasma, oral): ~1.1 fold
mean AUC0-24, AUClast and AUC0-inf higher for 10 mg compared to 8 mg (human, plasma, oral): ~20%
mean AUC0-24, AUClast and AUC0-inf, fold higher, 3 mg compared to 1 mg (human, plasma, oral): 3.4 to 3.5 fold
mean Cmax lower for 10 mg dose cohort compared to 8 mg dose cohort (human, plasma, oral): ~10%
mean Cmax, fold higher, 3 mg dose compared to 1 mg dose (human, plasma, oral): 3.5 fold
Cmax (human, plasma, oral, 8 mg, Cohort 2, Day 8, N = 4, read-out: Observed Mean Cmax): 16.6 ng/mL
half-life (human, plasma, oral, 8 mg, range of means for 1, 3 and 8 mg doses, read-out: elimination half-life, on average): 251 to 325 min
Vd/F (human, plasma, oral, 16 mg, 18 doses, no emesis, read-out: mean volume of distribution (Vz/F)): ~834 L
AUC(0-t) (human, plasma, oral, 16 mg, Cohort 6, N = 18, excluding 3 doses with vomiting postdose, read-out: Observed Mean AUC0-24): 165 ng·h/mL
Cmax (human, plasma, oral, 16 mg, Cohort 6, N = 18, excluding 3 doses with vomiting postdose, read-out: Observed Mean Cmax): 20.7 ng/mL
half-life (human, plasma, oral, 16 mg, as given in the text, read-out: mean elimination half-life (T1/2) (converted)): 335 min
Vd/F (human, plasma, oral, range of means, 1 to 10 mg doses, read-out: apparent volume of distribution (Vz/F), on average): 584 to 761 L
concentration at 2 h (human, plasma, oral, 10 mg, Cohort 3 Day 8, read-out: plasma psilocin-d10 concentration of one subject at 2 hours postdose): 18.7 ng/mL
concentration at 4 h (human, plasma, oral, 10 mg, Cohort 3 Day 8, set ~20% below the 2-hour value, read-out: estimated plasma psilocin-d10 concentration of one subject at 4 hours postdose (missed sample)): 14.9 ng/mL
AUC(0-t) (human, plasma, po, 1 mg, 1 mg oral, Cohort 1 MDD, Day 1 and Day 22 pooled, read-out: AUC0-24 Mean (SD)): 10 ng·h/mL
AUC(0-inf) (human, plasma, po, 1 mg, 1 mg oral, Cohort 1 MDD, Day 1 and Day 22 pooled): 10.2 ng·h/mL
AUC(0-t) (human, plasma, po, 1 mg, 1 mg oral, Cohort 1 MDD, Day 1 and Day 22 pooled, read-out: AUClast Mean (SD)): 10 ng·h/mL
Cmax (human, plasma, po, 1 mg, 1 mg oral, Cohort 1 MDD, Day 1 and Day 22 pooled, read-out: Cmax Mean (SD)): 1.69 ng/mL
Cmax (human, plasma, po, 1 mg, 1 mg oral, Cohort 1 MDD, Day 1 and Day 22 pooled, read-out: Cmax Median): 1.7 ng/mL
half-life (human, plasma, po, 1 mg, 1 mg oral, Cohort 1 MDD, Day 1 and Day 22 pooled, read-out: T1/2 Mean (SD) (converted)): 251 min
Vd/F (human, plasma, po, 1 mg, 1 mg oral, Cohort 1 MDD, Day 1 and Day 22 pooled, read-out: Vz/F Mean (SD)): 608 L
AUC(0-t) (human, plasma, po, 3 mg, 3 mg oral, Cohort 2 NHV, Day 1, read-out: AUC0-24 Mean (SD)): 34.5 ng·h/mL
AUC(0-inf) (human, plasma, po, 3 mg, 3 mg oral, Cohort 2 NHV, Day 1): 35.6 ng·h/mL
AUC(0-t) (human, plasma, po, 3 mg, 3 mg oral, Cohort 2 NHV, Day 1, read-out: AUClast Mean (SD)): 34.5 ng·h/mL
Cmax (human, plasma, po, 3 mg, 3 mg oral, Cohort 2 NHV, Day 1, read-out: Cmax Mean (SD)): 5.91 ng/mL
Cmax (human, plasma, po, 3 mg, 3 mg oral, Cohort 2 NHV, Day 1, read-out: Cmax Median): 5.87 ng/mL
half-life (human, plasma, po, 3 mg, 3 mg oral, Cohort 2 NHV, Day 1, read-out: T1/2 Mean (SD) (converted)): 286 min
Vd/F (human, plasma, po, 3 mg, 3 mg oral, Cohort 2 NHV, Day 1, read-out: Vz/F Mean (SD)): 584 L
Cmax (human, plasma, po, 8 mg, 8 mg oral, Cohorts 2 and 3 NHV, Day 1 and Day 8 pooled, 2 subjects excluded, read-out: Cmax Mean (SD)): 15 ng/mL
